According to the NIST ThermoML archive (doi:10.1016/j.fluid.2014.04.028):

How the values were obtained:
[1] = Crystal; DTA
[2] = Molar enthalpy of transition or fusion; details: Crystal; DSC
[3] = molar heat capacity at constant pressure; details: 101.33 kPa, Small sample (50 mg) DSC

Cc1nc2n(c(=O)c1CCN1CCC(c3noc4cc(F)ccc34)CC1)CCCC2 [risperidone]
Details | Molar enthalpy of transition or fusion [kcal/mol] | Normal melting temperature [°C]
[1] | – | 169.23
[2] | 10.5 | –

[3]
Details | molar heat capacity at constant pressure [J/K/mol]
270.1 K, Crystal | 471
275 K, Crystal | 476
280.1 K, Crystal | 480
284.9 K, Crystal | 483
290.1 K, Crystal | 489
294.9 K, Crystal | 495
300.1 K, Crystal | 502
304.9 K, Crystal | 509
310.1 K, Crystal | 516
314.9 K, Crystal | 523
320.1 K, Crystal | 530
324.9 K, Crystal | 537
330.1 K, Crystal | 544
334.9 K, Crystal | 551
340 K, Crystal | 558
345.1 K, Crystal | 564
350 K, Crystal | 571
355.1 K, Crystal | 578
359.9 K, Crystal | 583
365 K, Crystal | 590
370.1 K, Crystal | 597
375 K, Crystal | 602
380.1 K, Crystal | 609
384.9 K, Crystal | 615
390 K, Crystal | 621
394.9 K, Crystal | 627
400 K, Crystal | 634
405.1 K, Crystal | 641
409.9 K, Crystal | 647
430.1 K, Liquid | 839
434.9 K, Liquid | 842
440 K, Liquid | 845
445.1 K, Liquid | 850
449.9 K, Liquid | 854
453 K, Liquid | 856
